Paper PMC11313193, “Which Constituents Determine the Antioxidant Activity and Cytotoxicity of Garlic? Role of Organosulfur Compounds and Phenolics” (International Journal of Molecular Sciences, 2024)
Where two headings read alike, the source gives them in different places.

Assays:
[1] = ABTS^● decolorization assay; conditions: 30 min incubation at room temperature, absorbance at 734 nm
Protocol: A modification of the ABTS^● decolorization assay was employed. Briefly, various volumes of solutions of the studied compounds were introduced to wells of a 96-well microplate, each prefilled 200 μL of ABTS^● solution. […] The drop in absorbance after 30 min incubation at room temperature was read as a measure of the antioxidant activity.
(§1) All assays were standardized with respect to Trolox. The antioxidant activity was calculated in each case as a ratio of the slope of the dependence of absorbance change on the concentration of a studied compound to the slope of the dependence of absorbance change of standard samples concerning Trolox on the concentration of Trolox. Antioxidant activities were expressed in moles of Trolox equivalents (TE)/mol of a studied compound, as described previously.

[2] = DPPH^● decolorization assay; conditions: 30 min at ambient temperature in the dark, absorbance at 517 nm
Protocol: The assay was performed as described in a previous article. Briefly, increasing volumes of solutions of the studied compounds were introduced to wells of a 96-well microplate, each with 200 μL of 0.3 mM DPPH^● solution in methanol. The reaction was allowed to proceed for 30 min at ambient temperature in the dark, and absorbance at 517 nm was read. The absorbance decrease was a measure of the antioxidant activity.
as §1

[3] = Ferric reducing antioxidant power (FRAP) assay; conditions: 30 min at ambient temperature, pH 3.6, absorbance at 593 nm
Protocol: The method proposed by Benzie and Strain [91] was employed with a slight modification. Briefly, increasing volumes of solutions of the studied compounds were added to wells of a 96-well microplate prefilled with 200 μL of the working solution composed of 0.3 M acetate buffer, pH 3.6 (10 volumes), 10 mM 2,4,6-tris(2-pyridyl)-s-triazine (TPTZ), in 40 mM HCl (1 volume) and 20 mM FeCl3 (1 volume), was prepared immediately before use. After 30 min incubation at ambient temperature and the absorbance of the Fe^2+-TPTZ complex was read at 593 nm.
as §1

[4] = tested on: PEO1 ovarian cancer cells; experiment: Cytotoxicity (Neutral Red), PEO1 cells; assay type: cell-based, human; conditions: for IC50: Homo sapiens, read-out: IC50 PEO1
Protocol: (§2) The PEO1 cells, SKOV-3 cells, and MRC-5 cells were grown at 37 °C and 5% CO2 in RPMI + GlutaMAX medium, McCoy’s 5A medium, and the DMEM + GlutaMAX medium, respectively. The media were supplemented with 10% heat-inactivated fetal calf serum and penicillin/streptomycin. The cell viability was evaluated using the Trypan Blue exclusion test.
(§3) In the cytotoxicity experiments, cells were grown in wells of sterile 96-well plates. The seeding density was 1 × 10^4 for SKOV-3 and MRC-5 cells and 1.5 × 10^4 for PEO1 cells. The cells were allowed to grow in the incubator for 24 h. Then, the medium was removed and new medium with an examined compound was added. The stock solutions of the compounds studied diluted with the appropriate cell medium were filtered before the addition to the cells using 0.22 µm filters. No more than 0.02% of DMSO was present in the media, and it had no discernible impact on the treated cells. Cells not exposed to any compound served as a control. After another 24 h incubation, the medium was gently aspirated, and the wells were added with 2% sterile Neutral Red solution (100 µL). The plates were then incubated (37 °C, 5% CO2) for one hour. The Neutral Red solution was aspirated, and the wells were washed two times with warm (37 °C) PBS. Subsequently, 100 µL of a permeabilization mixture (water/ethanol/glacial acetic acid, 50/49/1, v/v/v) was introduced to each well. The plates were shaken at 700 rpm for 20 min and absorbance was read at a wavelength of 540 nm against 620 nm.

MRC-5 fibroblasts = experiment: Cytotoxicity (Neutral Red), MRC-5 fibroblasts; assay type: cell-based, human; conditions: for Concentration at which viability of MRC-5 cells was lowered: p < 0.05; for IC50: read-out: IC50 MRC-5
Protocol: as §2, §3

[5] = tested on: microsomal lipid peroxidation; design: method as in PMID 16822206; conditions: cited from earlier work
[6] = tested on: cervical epidermoid carcinoma Ca Ski cells; design: method as in PMID 19035312; conditions: 24 h exposure; read-out: Concentration decreasing viability of Ca Ski cells to about 50%; cited from earlier work
[7] = tested on: breast cancer MCF-7 cells; design: method as in PMID 18817629; conditions: 24 h exposure; read-out: Concentration decreasing viability of MCF-7 cells to about 50%; cited from earlier work
[8] = tested on: prostatic carcinoma LNCaP cells; design: method as in PMID 16142693; conditions: 100 μM, 24 h exposure; cited from earlier work
lung cancer A549 cells = tested on: lung cancer A549 cells; design: method as in PMID 16024053; conditions: 200 μM, 24 h exposure; cited from earlier work
[9] = tested on: colorectal cancer HCT-116 cells; design: method as in PMID 19202565; conditions: 400 μM, 24 h exposure; cited from earlier work
MDA-MB-468 cells = tested on: MDA-MB-468 cells; design: method as in earlier work; conditions: 1.5 mM, 24 h exposure; cited from earlier work
[10] = tested on: lung epithelial BEAS-2B cells; design: method as in earlier work; conditions: 1.5 mM, 24 h exposure; cited from earlier work
[11] = tested on: SKOV-3 ovarian cancer cells; experiment: Cytotoxicity (Neutral Red), SKOV-3 cells; assay type: cell-based, human; conditions: 24 h exposure; for Concentration at which viability of SKOV-3 cells was lowered: p < 0.05; for IC50: Homo sapiens, SK-OV-3, Neutral Red, read-out: IC50 SKOV-3
Protocol: as §2, §3

SKOV-3 cells = tested on: SKOV-3 cells; design: method as in PMID 16675472; conditions: cited from earlier work
[12] = tested on: A2780 human ovarian carcinoma cells; design: method as in PMID 24362328; conditions: prolonged treatment; cited from earlier work
[13] = tested on: breast cancer MCF-7 cells; design: method as in PMID 32286702; conditions: 1 mM, 24 h exposure; cited from earlier work
[14] = tested on: breast cancer HCC-70 cells; design: method as in PMID 32286702; conditions: 1 mM, 24 h exposure; cited from earlier work
neuroblastoma N2a cells = tested on: neuroblastoma N2a cells; design: method as in PMID 24760364; conditions: after 24 h; read-out: Concentration decreasing proliferation of N2a cells by 50%; cited from earlier work
A375 melanocytes = tested on: A375 melanocytes; design: method as in PMID 33178586; conditions: read-out: Concentration decreasing proliferation of A375 melanocytes by 50%; cited from earlier work
B16 melanocytes = tested on: B16 melanocytes; design: method as in PMID 33178586; conditions: read-out: Concentration decreasing proliferation of B16 melanocytes by 50%; cited from earlier work
[15] = tested on: colon carcinoma HT-29 cells; design: method as in PMID 24282361; conditions: after 48 h exposure; read-out: Concentration decreasing proliferation of HT-29 cells by 50%; cited from earlier work
[16] = tested on: colorectal carcinoma HCT-15 cells; design: method as in PMID 24282361; conditions: after 48 h exposure; read-out: Concentration decreasing proliferation of HCT-15 cells by 50%; cited from earlier work
[17] = PEO1, 24 h exposure, Neutral Red
[18] = Homo sapiens, MRC5, 24 h exposure, Neutral Red

C=CCSSCC=C [Diallyl disulfide, diallyl disulfide]
Antioxidant activity, ABTS^● Decolorization [1]: 0.013 ± 0.006 mol Trolox equivalents (TE)/mol compound
Antioxidant activity, DPPH^● Decolorization [2]: 0.049 ± 0.014 mol Trolox equivalents (TE)/mol compound
Antioxidant activity, FRAP [3]: 0.0025 ± 0.0011 mol Trolox equivalents (TE)/mol compound
IC50 ([4]; PEO1, 24 h): 265 µM
Concentration at which viability of MRC-5 cells was lowered (MRC-5 fibroblasts; 24 h exposure): 300 µM
IC50 (MRC-5 fibroblasts; Homo sapiens, MRC5, 24 h): 268 µM
Termination of lipid peroxidation / prevention of induced microsomal lipid peroxidation [5]: efficient lipid peroxidation terminator
IC50 [6]: ~25 µM
IC50 [7]: 400 µM
Reduction of survival of LNCaP cells [8]: about 30%
Reduction of survival of A549 cells (lung cancer A549 cells): about 20%
Survival of HCT-116 cells (decreased to) [9]: ca. 80%
Viability of MDA-MB-468 cells (reduced to) (MDA-MB-468 cells): about 65%
Viability of BEAS-2B cells (reduced to) [10]: about 75%

C=CCSCC=C [Allyl sulfide]
Antioxidant activity, ABTS^● Decolorization [1]: 0.016 ± 0.010 mol Trolox equivalents (TE)/mol compound
Antioxidant activity, DPPH^● Decolorization [2]: −0.006 ± 0.011 mol Trolox equivalents (TE)/mol compound
Antioxidant activity, FRAP [3]: 0.0026 ± 0.0010 mol Trolox equivalents (TE)/mol compound
Concentration range with no significant decrease in viability of SKOV-3 cells [11]: up to 100 µM
Concentration at which viability of SKOV-3 cells was lowered [11]: 200 to 500 µM
IC50 [11]: 243 µM
Concentration range with no significant decrease in viability of PEO1 cells ([4]; 24 h exposure): up to 100 µM
IC50 [4, 17]: 257 µM
Concentration range with no significant decrease in viability of MRC-5 cells (MRC-5 fibroblasts; 24 h exposure): up to 100 µM
Concentration at which viability of MRC-5 cells was lowered (MRC-5 fibroblasts; 24 h exposure): 200 to 500 µM
IC50 (MRC-5 fibroblasts; [18]): 163 µM

C=CCSC[C@H](N)C(=O)O [SAC, S-allylcysteine]
Termination of lipid peroxidation / prevention of induced microsomal lipid peroxidation [5]: ineffective
Migration of SKOV-3 cells and their invasiveness (SKOV-3 cells): inhibited
Apoptosis of A2780 cells [12]: provoked apoptosis
Migration and invasiveness of A2780 cells [12]: attenuated
Proliferation of A2780 cells [12]: inhibited proliferation

alliin
Antioxidant activity, ABTS^● Decolorization [1]: 0.035 ± 0.012 mol Trolox equivalents (TE)/mol compound
Antioxidant activity, DPPH^● Decolorization [2]: 0.004 ± 0.001 mol Trolox equivalents (TE)/mol compound
Antioxidant activity, FRAP [3]: 0.0006 ± 0.0007 mol Trolox equivalents (TE)/mol compound
IC50 (MRC-5 fibroblasts; 24 h exposure, Neutral Red): 321 µM
Termination of lipid peroxidation / prevention of induced microsomal lipid peroxidation [5]: ineffective
Viability of MCF-7 cells (decreased down to) [13]: ca. 75%
Viability of HCC-70 cells (decreased down to) [14]: ca. 85%

O=C(O)/C=C/c1ccc(O)cc1 [Coumaric acid]
Antioxidant activity, ABTS^● Decolorization [1]: 0.585 ± 0.082 mol Trolox equivalents (TE)/mol compound
Antioxidant activity, DPPH^● Decolorization [2]: 0.076 ± 0.005 mol Trolox equivalents (TE)/mol compound
Antioxidant activity, FRAP [3]: 0.153 ± 0.003 mol Trolox equivalents (TE)/mol compound
Concentration range with no significant decrease in viability of SKOV-3 cells [11]: 0 to 1000 µM
Concentration range with no significant decrease in viability of PEO1 cells ([4]; 24 h exposure): 0 to 1000 µM
IC50 [4, 17]: 1430 µM
Concentration range with no significant decrease in viability of MRC-5 cells (MRC-5 fibroblasts; 24 h exposure): 0 to 1000 µM
IC50 (neuroblastoma N2a cells): 104 µM
IC50 (A375 melanocytes): 2500 µM
IC50 (B16 melanocytes): 2800 µM
IC50 [15]: 1400 µM
IC50 [16]: 1600 µM

C=CCSSSCC=C [Diallyl trisulfide, diallyl trisulfide]
Antioxidant activity, ABTS^● Decolorization [1]: 0.030 ± 0.006 mol Trolox equivalents (TE)/mol compound
Antioxidant activity, DPPH^● Decolorization [2]: 0.005 ± 0.0003 mol Trolox equivalents (TE)/mol compound
Antioxidant activity, FRAP [3]: 0.0022 ± 0.0004 mol Trolox equivalents (TE)/mol compound
Concentration at which viability of SKOV-3 cells was lowered [11]: 50 µM
IC50 [11]: 154 µM
Concentration at which viability of PEO1 cells was lowered ([4]; 24 h exposure, p < 0.05): 50 µM
IC50 [4, 17]: 721 µM
Concentration range with no significant decrease in viability of MRC-5 cells (MRC-5 fibroblasts; 24 h exposure): 0 to 50 µM

C=CCSCC(N)C(=O)O (stereo in doubt) [S-Allyl-D-cysteine]
Antioxidant activity, ABTS^● Decolorization [1]: 0.070 ± 0.059 mol Trolox equivalents (TE)/mol compound
Antioxidant activity, DPPH^● Decolorization [2]: −0.020 ± 0.004 mol Trolox equivalents (TE)/mol compound
Antioxidant activity, FRAP [3]: 0.0003 ± 0.0002 mol Trolox equivalents (TE)/mol compound
IC50 [11]: 421 µM
IC50 (MRC-5 fibroblasts; [18]): 578 µM
